# Measured values reported in patent US6242442A (Alcon Laboratories, Inc., priority 2000, dated 2001).
# Read-outs that look alike come from different tables or passages of the source.
# Assays:
# [1] = system: ocular and cerebral blood flow; details: oral and i.v. administration, relatively high dosages; cited from earlier work
# [2] = in words; cited from earlier work
# α2 = details: cited from earlier work
# [3] = system: scleral vessels; vessels in the back of the eye; details: topical ocular administration; cited from earlier work
# IOP = details: rabbits, monkeys and man; cited from earlier work
# [4] = topical, some patients; cited from earlier work
# retina [5] = test: Tissue distribution after single topical ocular dose of 14C-brinzolamide, NZW rabbits; assay type: in vivo, New Zealand Albino (NZW) rabbits
# retina [6] = test: Tissue distribution after single topical ocular dose of 14C-brinzolamide, Dutch belted rabbits; assay type: in vivo
# [7] = system: intraocular pressure (IOP); test: Intraocular pressure, one-week multidose topical crossover study in rabbits; assay type: in vivo, Dutch-Belted rabbits; details: 2% suspension topical, one drop twice daily, 90 minutes after last dose, p<0.05 versus vehicle, p<0.001 versus baseline
# Description: (§1) Treatment measurements were made 90 minutes after the last dose on day eight. Optic nerve head blood flow and measured systemic variables were not changed by vehicle treatment. […] It is established that the vasculature of the ONH responds to increases in arterial O2 or CO2 tension by a reduction or an enhancement of ONH blood flow respectively.
# ocular tissues = test: Ocular blood flow by colored microsphere technique in anesthetized rabbits, intravenous; assay type: in vivo, New Zealand albino rabbits; details: for increase in total ocular blood flow, hypofused eyes: unilateral carotid occlusion
# Source text: (§2) In this experiment it was also possible to compare blood flows of the normal eye to the contralateral eye that was mildly hypofused due to unilateral carotid occlusion.
# intraocular pressure = details: ocular hypertension and glaucoma; cited from earlier work
# optic nerve head (ONH) [8] = test: Optic nerve head blood flow by laser Doppler flowmetry in cats; assay type: in vivo, cat
# [9] = Distribution coefficient (octanol/water determined at pH 7.4); assay type: physicochemical
# [10] = Acid-base balance and arterial gases, one-week multidose topical crossover study in rabbits; assay type: in vivo, Dutch-Belted rabbits; details: 2% suspension topical, one drop twice daily
# Description: as §1
# optic nerve head (ONH) [11] = test: Optic nerve head blood flow by LDF, one-week multidose topical crossover study in rabbits; assay type: in vivo, Dutch-Belted rabbits; details: 2% suspension topical, one drop twice daily, 90 minutes after last dose, mean±SEM, p<0.05
# Description: as §1
# optic nerve head = test: Optic nerve head blood flow by LDF in anesthetized rabbits, intravenous; assay type: in vivo, New Zealand albino rabbits; details: intravenous 0.5, 2.5, and 5 mg/kg
# Source text: as §2
# ocular blood flow [12] = details: cited from earlier work
# ocular blood flow [13] = details: cited from earlier work; remark: listed apart in the source
# [14] = system: blood flow to the iris, ciliary processes, optic nerve, or retina; details: topical, rabbits; Sugrue et al. 1996; cited from earlier work
# [15] = octanol/water, pH 7.4; in words; cited from earlier work
# [16] = retina, single topical ocular dose of 1% 14C-brinzolamide
# [17] = read-out: distribution coefficient (converted)
compound,measurement,setting,value
CC(=O)Nc1nnc(S(N)(=O)=O)s1 [acetazolamide],ocular and cerebral blood flow,[1],increase both ocular and cerebral blood flow
same,half-life in whole blood,[2],relatively short half-lives in whole blood
"Brc1c(NC2=NCCN2)ccc2nccnc12 [brimonidine, (5-bromo-6-2-imidzolidisnylideneamino) quinozoline L-tartrate]",α2 agonist activity and selectivity,α2,potent and relatively selective α2 agonist
same,vasoconstriction in scleral vessels,[3],causes vasoconstriction in scieral vessels
same,vasoconstriction in vessels in the back of the eye,[3],does not appear to be a vasoconstrictor in vessels in the back of the eye
same,lowering of IOP,IOP,"effectively lower IOP in rabbits, monkeys and man"
same,side effects,[4],sedation and ocular hyperemia in an allergic like reaction in some patients
"CCN[C@H]1CN(CCCOC)S(=O)(=O)c2sc(S(N)(=O)=O)cc21 [brinzolamide, R-(+)-4ethylamino-3,4-dihydro-2-(3-methoxy)propyl-2H thieno[3,2,e]1,2thiazene-6sulfonamide-1,1dioxide]",Cmax,retina [5]; [16],0.330 ?g equivalents/g
same,Tmax in the retina,retina [5]; single topical ocular dose of 1% 14C-brinzolamide,20 days
same,redistribution into the retina,retina [5]; topical ocular,slowly redistribute into the retina
same,Cmax,retina [6]; [16],0.338 ?g equivalents/g
same,redistribution into the retina,retina [6]; topical ocular,slowly redistribute into the retina
same,decrease of IOP,[7],16.8±2.2%
same,regional blood flows to the hypofused eye,ocular tissues; highest intravenous dose,returned regional blood flows to the hypofused eye to baseline levels found in the normal eye
same,"tissues with greatest percentage blood flow increase, hypofused eye",ocular tissues; intravenous,"greatest to iridial, ciliary, and choroidal tissues, respectively"
same,"increase in total ocular blood flow, normal eyes",ocular tissues; intravenous 0.5 mg/kg,29%
same,"increase in total ocular blood flow, hypofused eyes",ocular tissues; intravenous 0.5 mg/kg,21%
same,"increase in total ocular blood flow, normal eyes",ocular tissues; intravenous 2.5 mg/kg,68%
same,"increase in total ocular blood flow, hypofused eyes",ocular tissues; intravenous 2.5 mg/kg,64%
same,"increase in total ocular blood flow, normal eyes",ocular tissues; intravenous 5 mg/kg,90%
same,"increase in total ocular blood flow, hypofused eyes",ocular tissues; intravenous 5 mg/kg,90%
same,total ocular blood flow,"ocular tissues; intravenous 0.5, 2.5, and 5 mg/kg",significant dose-related increase
same,lowering of elevated intraocular pressure,intraocular pressure,effective in lowering the elevated intraocular pressure
same,increase in ONH blood flow over control group,"optic nerve head (ONH) [8]; 1% topical, one drop twice a day, one week, spontaneously breathing cats, average of two measurements",21.8%
same,increase in ONH blood flow,"optic nerve head (ONH) [8]; 60 minutes following single topical dose, anesthetized ventilated cats",16.5%±8%
same,increase in ONH blood flow,"optic nerve head (ONH) [8]; intravenous, p≤0.05",46±17%
same,logD,[9]; [17],0.817
same,disturbance of acid-base balance,[10],Minimal disturbance of acid-base balance
same,increase in ONH blood flow,optic nerve head (ONH) [11],11.2±1.6%
same,optic nerve head blood flow,optic nerve head,increased above baseline
CCN[C@H]1C[C@H](C)S(=O)(=O)c2sc(S(N)(=O)=O)cc21 [dorzolamide],artereovenous passage time,"ocular blood flow [12]; healthy subjects, WO 96/37203",accelerated artereovenous passage time
same,optic nerve head velocity,"ocular blood flow [12]; healthy subjects, WO 96/37203",increase in optic nerve head velocity
same,retinal vein blood flow,"ocular blood flow [12]; normal volunteers, Gruenwald et al. 1997",no effect on retinal vein blood flow
same,optic nerve head blood flow,"ocular blood flow [12]; topical, healthy subjects, Pillunat et al. 1997",did not alter optic nerve head blood flow
same,blood velocity in the retina and superficial optic nerve head,ocular blood flow [13]; Harris et al. 1996,accelerated blood velocity in the retina and superficial optic nerve head
same,choroidal pressure flow relationships,ocular blood flow [13]; Shipman et al. 1997,did not alter the choroidal pressure flow relationships
same,peripapillary blood flow,"ocular blood flow [13]; topical, Koller et al. 1997",did not change peripapillary blood flow
same,ocular blood flow,"ocular blood flow [13]; topical, Sponsel 1996, 1997",positive effect on ocular blood flow
same,logD,[9]; [17],0.236
same,"blood flow to the iris, ciliary processes, optic nerve, or retina",[14],does not decrease blood flow
CC(=O)/N=c1/sc(S(N)(=O)=O)nn1C [methazolamide],distribution coefficient,[15],low distribution coefficients
same,ocular and cerebral blood flow,[1],increase both ocular and cerebral blood flow
same,half-life in whole blood,[2],relatively short half-lives in whole blood
same,logD,[9],-0.194
